The text below walks through data of ChEMBL document CHEMBL1201862, “PubChem BioAssay data set” (2004).

Among the test systems are 786-0; A549; ACHN; BT-549; DU-145; HCT-116; HCT-15; HT-29; Hs-578T; K562; LOX IMVI; MCF7; NCI-H522; NCI/ADR-RES; RPMI-8226; SK-MEL-28; SNB-19; SR; SW-620; U-251.
Common to all, as to test: NCI-60 cell line screen, 48 h

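How tested: cells in 96-well plates exposed to compound for 48 hours at five concentrations. Here, GI50 denotes the concentration required for 50% inhibition of growth.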 Activity calls are given as the source filed them. No stated cut-off is given here; in the data, active = GI50 up to about 1.1 µM and inactive = higher.

Consider `COc1ccc(-c2cc(=O)c3c(OC)c(OC)c(OC)cc3o2)cc1`, for which the GI50 in the assay with 786-0 is 19.9 µM (inactive); in the assay with A549 it was 27.1 µM (inactive); with ACHN it was 24.4 µM (inactive); in the assay on BT-549 it was 31.7 µM (inactive); in the assay on DU-145, 25.5 µM (inactive); in the assay on HCT-116, 32.6 µM (inactive). Also, the GI50 was 32.7 µM in the assay with HCT-15; 28.4 µM (inactive) with HT-29; 35.6 µM (inactive) with Hs-578T; 34.4 µM (inactive) in the assay with K562; 28.2 µM (inactive) in the assay with LOX IMVI; 37.4 µM (inactive) in the assay with MCF7. For the same compound, the GI50 in the assay with NCI-H522 was 23.7 µM (inactive); in the assay on NCI/ADR-RES, 28.2 µM (inactive); in the assay with RPMI-8226, 27 µM (inactive); in the assay on SK-MEL-28 it was 45.6 µM (inactive); in the assay on SNB-19 it was 45 µM (inactive); in the assay on SR, 11.3 µM (inactive). In addition, the GI50 with SW-620 is 36.8 µM (inactive); in the assay on U-251 it was 26.3 µM (inactive).
As to `CSCCC(C(=O)O)N(C)C` (stereo not drawn), the GI50 with 786-0, in the assay with A549, in the assay with ACHN, in the assay with BT-549, in the assay with DU-145 and in the assay with HCT-116 was > 100 µM (inactive) throughout. For the same compound, the GI50 with HCT-15 is more than 100 µM; in the assay with HT-29, > 100 µM (inactive); in the assay with Hs-578T it was > 100 µM (inactive); with K562, 41.9 µM (inactive); in the assay on LOX IMVI it was > 100 µM (inactive); with MCF7 it was > 100 µM (inactive). For the same compound, the GI50 with NCI-H522, in the assay with NCI/ADR-RES, with RPMI-8226, in the assay on SK-MEL-28, with SNB-19 and in the assay with SR was > 100 µM (inactive) in each case. For the same compound, the GI50 with SW-620 and in the assay with U-251 was > 100 µM (inactive) in each case.
With `Cc1ccc(O)c(C2=CC(c3cccc(Br)c3)SC(=N)N2)c1` (stereo not drawn), the GI50 is 23.7 µM (inactive) in the assay with 786-0; 25.8 µM (inactive) with A549; 23.3 µM (inactive) with ACHN; 29.8 µM (inactive) in the assay with BT-549; 34.5 µM (inactive) in the assay with DU-145; 17.3 µM (inactive) in the assay with HCT-116. The GI50 is 14.5 µM in the assay with HCT-15; 33.7 µM (inactive) in the assay on HT-29; 20.4 µM (inactive) in the assay with Hs-578T; 24.5 µM (inactive) with K562; 18.5 µM (inactive) in the assay on LOX IMVI; 23.3 µM (inactive) in the assay with MCF7. Also, the GI50 was 16 µM (inactive) in the assay on NCI-H522; 27.9 µM (inactive) in the assay on NCI/ADR-RES; 18 µM (inactive) in the assay with RPMI-8226; 13.6 µM (inactive) in the assay with SNB-19; 17.1 µM (inactive) with SR; 28.4 µM (inactive) in the assay with SW-620. Further, the GI50 in the assay on U-251 was 17.5 µM (inactive).
`Cc1cccc(Nc2nc3ccccc3nc2NS(=O)(=O)c2ccccc2)c1`: the GI50 with 786-0 was 39.4 µM (inactive); with A549, 14.1 µM (inactive); in the assay on ACHN, 28.9 µM (inactive); in the assay with BT-549 it was 40.1 µM (inactive); with DU-145, 44.3 µM (inactive); in the assay with HCT-116, 27.4 µM (inactive). The GI50 in the assay with HCT-15 is 16 µM; with HT-29, 26.6 µM (inactive); in the assay with Hs-578T, 33 µM (inactive); in the assay on K562, 72.1 µM (inactive); in the assay on LOX IMVI, 45.4 µM (inactive); in the assay on MCF7 it was 26.5 µM (inactive). In addition, the GI50 is 17.3 µM (inactive) in the assay on NCI-H522; 20 µM (inactive) in the assay with NCI/ADR-RES; 7.01 µM (inactive) in the assay with RPMI-8226; 38.7 µM (inactive) with SK-MEL-28; 18.1 µM (inactive) with SNB-19; 25.6 µM (inactive) in the assay with SR. Further, the figures for the GI50 in the assay with SW-620 and with U-251 were 29.6 µM (inactive) and 14.6 µM (inactive), respectively.
For the compound `COc1cc(OC)cc(-n2c(N)c(-c3nc4ccccc4s3)c3ccc([N+](=O)[O-])cc3c2=O)c1`, the GI50 in the assay with 786-0 is 13.1 µM (inactive); in the assay on ACHN, 12.5 µM (inactive); in the assay with BT-549, > 100 µM (inactive); in the assay with DU-145 it was 43.8 µM (inactive); in the assay with HCT-116, 24.9 µM (inactive); with HCT-15, 61.1 µM. The GI50 in the assay on HT-29 was > 100 µM (inactive); in the assay with Hs-578T, 27.7 µM (inactive); in the assay with K562 it was 13.4 µM (inactive); with LOX IMVI, > 100 µM (inactive); in the assay on MCF7, > 100 µM (inactive); in the assay on NCI-H522, 23.9 µM (inactive). Besides, the GI50 in the assay on NCI/ADR-RES was 24.9 µM (inactive); in the assay on RPMI-8226, > 100 µM (inactive); in the assay with SK-MEL-28, > 100 µM (inactive); in the assay on SNB-19, 18.1 µM (inactive); in the assay with SR, 24.3 µM (inactive); with SW-620, > 100 µM (inactive). Besides, the GI50 with U-251 is 34.1 µM (inactive).
As for `c1ccc(COc2ncccc2C2SCCCS2)cc1`, the GI50 in the assay on 786-0, with A549, in the assay on ACHN, with BT-549, in the assay on DU-145 and with HCT-116 was > 100 µM (inactive) throughout. The GI50 is more than 100 µM in the assay with HCT-15; > 100 µM (inactive) in the assay with Hs-578T; 96.4 µM (inactive) with K562; 82.4 µM (inactive) in the assay with LOX IMVI; 84.3 µM (inactive) in the assay with MCF7; > 100 µM (inactive) with NCI-H522. The GI50 was > 100 µM (inactive) in the assay with NCI/ADR-RES; > 100 µM (inactive) in the assay with RPMI-8226; > 100 µM (inactive) in the assay with SK-MEL-28; > 100 µM (inactive) in the assay with SNB-19; 70 µM (inactive) with SR; > 100 µM (inactive) with SW-620. Besides, the GI50 with U-251 was > 100 µM (inactive).
Turning to `O=c1[nH][nH]c(=O)n1Cc1cccc(Cn2c(=O)[nH][nH]c2=O)c1`, the GI50 in the assay on 786-0 is > 100 µM (inactive); in the assay on A549, > 100 µM (inactive); in the assay with BT-549, > 100 µM (inactive); in the assay with DU-145 it was > 100 µM (inactive); in the assay on HCT-116, > 100 µM (inactive); with HCT-15, more than 100 µM. Also, the GI50 in the assay on HT-29, in the assay on Hs-578T, in the assay on K562, in the assay on LOX IMVI, in the assay with MCF7 and in the assay on NCI-H522 was > 100 µM (inactive) each time. Further, the GI50 in the assay on NCI/ADR-RES, in the assay on RPMI-8226, in the assay with SK-MEL-28, with SNB-19, in the assay on SR and with SW-620 was > 100 µM (inactive) throughout. In the assay on U-251, the GI50 was > 100 µM (inactive).
Take `O=C1c2c(Br)sc(Br)c2[C@@H](NC(=O)C(F)(F)F)C1Br` (stereo partly drawn): the GI50 with 786-0 was 2.13 µM (inactive); in the assay on A549 it was 17.1 µM (inactive); in the assay on ACHN, 2.5 µM (inactive); in the assay on BT-549, 3.03 µM (inactive); with DU-145 it was 6.71 µM (inactive); in the assay with HCT-15 it was 1.83 µM. Also, the GI50 in the assay on HT-29 was 2.37 µM (inactive); in the assay with Hs-578T, 7.94 µM (inactive); with K562, 1.93 µM (inactive); in the assay with LOX IMVI, 1.57 µM (inactive); in the assay on MCF7 it was 5.71 µM (inactive); with NCI-H522 it was 2.03 µM (inactive). The GI50 with NCI/ADR-RES is 3.32 µM (inactive); with RPMI-8226, 2.33 µM (inactive); in the assay on SK-MEL-28, 3.05 µM (inactive); in the assay with SNB-19, 13 µM (inactive); in the assay with SR, 2.07 µM (inactive); with SW-620, 2.7 µM (inactive). In addition, in the assay on U-251, the GI50 was 2.93 µM (inactive).
As for `CCOc1cc(NC(C)=O)ccc1C(=O)NN1C(=O)C(Cl)C1c1ccco1` (stereo not drawn), the GI50 in the assay with 786-0 is 16.1 µM (inactive); with A549 it was 18.7 µM (inactive); with ACHN, 15.7 µM (inactive); with BT-549, 13.5 µM (inactive); in the assay on DU-145, 17.3 µM (inactive); with HCT-116, 20.7 µM (inactive). The GI50 with HCT-15 is 19.1 µM; in the assay on HT-29, 19.1 µM (inactive); with Hs-578T, 21.8 µM (inactive); in the assay with K562, 19.3 µM (inactive); with LOX IMVI, 3.99 µM (inactive); in the assay with MCF7, 13.4 µM (inactive). Moreover, the GI50 is 10.6 µM (inactive) in the assay on NCI-H522; 33.7 µM (inactive) in the assay with NCI/ADR-RES; 18.3 µM (inactive) in the assay on RPMI-8226; 22.6 µM (inactive) in the assay on SK-MEL-28; 17 µM (inactive) in the assay on SNB-19; 13.9 µM (inactive) in the assay on SR. Moreover, the GI50 in the assay with SW-620 was 32.3 µM (inactive).
As to `CC(C)=CCc1cc(/C=C/C(=O)O)cc(CC=C(C)C)c1O` [ARTEPILLIN], the GI50 in the assay with 786-0, with A549, in the assay with ACHN, with BT-549, in the assay on DU-145 and in the assay on HCT-116 was > 100 µM (inactive) each time. The GI50 with HCT-15 is 76 µM; in the assay on HT-29, 47.3 µM (inactive); with Hs-578T, > 100 µM (inactive); in the assay on K562, 76 µM (inactive); with LOX IMVI, 43.7 µM (inactive); with MCF7, > 100 µM (inactive). In addition, the GI50 with NCI-H522 was 31.3 µM (inactive); in the assay on NCI/ADR-RES it was > 100 µM (inactive); with RPMI-8226 it was 76.6 µM (inactive); in the assay with SNB-19, > 100 µM (inactive); in the assay with SR, > 100 µM (inactive); in the assay on SW-620, > 100 µM (inactive). In the assay on U-251, the GI50 was > 100 µM (inactive).
